Like-named read-outs stand apart in the source and are kept apart here.
Columns and labels:
[1] = test system: Myotonic Dystrophy 1 affected patient fibroblasts (Coriel GM04602; 1600 CTG repeats); assay: DM1 foci reduction assay (EC50 assay; CAG10-Cy3 FISH, foci per nucleus); type: cell-based
Method in brief: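 Foci per nucleus counted by 20× imaging of 4 areas per well, after overnight FISH with 5 nM CAG10-Cy3 and DAPI staining of fixed, permeabilized cells. DM1 fibroblasts (GM04602, 1600 CTG) were dosed 48 h at 37 °C, 8 points, 3-fold dilutions, 3 μM top concentration.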

F35T cells = assay: Foci reduction in FECD (CAG10-Cy3 FISH, foci per nucleus); type: cell-based
Method in brief: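 Foci per nucleus were counted by imaging after overnight CAG10-Cy3 FISH at 37 °C (30% formamide, 2×SSC) with DAPI counterstain, on PFA-fixed, ethanol-permeabilized F35T cells. The cells, seeded at 5000 per well in supplemented Opti-MEM, had received 8-point compound dilutions for 48 h at 37 °C.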

[2] = Homo sapiens, Fibroblast; DM1 patient fibroblasts, 48 h treatment, foci per nucleus; read-out: DM1 EC50, 48 h
[3] = F35T cells, 48 h treatment, foci per nucleus; read-out: FECD EC50, 48 h
[4] = Homo sapiens, Fibroblast; DM1 patient fibroblasts, foci per nucleus, 48 h treatment; read-out: DM1 EC50, 48 h
[5] = F35T cells, foci per nucleus, 48 h treatment; read-out: FECD EC50, 48 h

Row | Structure (SMILES) | EC50 [1, 2] | EC50 (F35T cells; [3]) | EC50 [1, 4] | EC50 (F35T cells; [5])
1 | Cn1cc(NC(=O)c2nccn2C)cc1C(=O)NCCC(=O)Nc1cn(C)c(C(=O)Nc2cc(C(=O)NCC[C@@H](N)C(=O)Nc3cn(C)c(C(=O)NCCC(=O)Nc4cc(C(=O)Nc5cn(C)c(C(=O)NCCC(=O)N6CCC(C#CC#CC7CCNCC7)CC6)n5)n(C)c4)n3)n(C)c2)n1 [Compound B-407] | 100 to 500 nM | 500 to 1000 nM |  | 
2 | CCCCn1cc(NC(=O)c2nc(NC(=O)CCNC(=O)c3cc(NC(=O)c4nccn4C)cn3C)cn2C)cc1C(=O)NC[C@H](N)CC(=O)Nc1cn(C)c(C(=O)NCCC(=O)Nc2cc(C(=O)Nc3cn(C)c(C(=O)NCCC(=O)N4CCN(C)CC4)n3)n(C)c2)n1 [Compound B-420] |  |  | 100 to 500 nM | 500 to 1000 nM
3 | CCCNC(=O)c1nc(NC(=O)c2cc(NC(=O)CCNC(=O)c3nc(NC(=O)CC4(CNC(=O)c5cc(NC(=O)c6nc(NC(=O)CCNC(=O)c7cc(NC(=O)c8nccn8C)cn7C)cn6C)cn5C)CNC4)cn3C)cn2C)cn1C [Compound B-439] |  |  | 100 to 500 nM | 100 to 500 nM
4 | CN(C)CCCn1cc(NC(=O)c2nc(NC(=O)CCNC(=O)c3cc(NC(=O)c4nccn4C)cn3C)cn2C)cc1C(=O)NCCCC(=O)Nc1cn(C)c(C(=O)NCCC(=O)Nc2cc(C(=O)Nc3cn(C)c(C(=O)NCCC(=O)N4CCCCC4)n3)n(C)c2)n1 [Compound B-430] |  |  | < 100 nM | < 100 nM
5 | CCCNC(=O)c1nc(NC(=O)c2cc(NC(=O)CCNC(=O)c3nc(NC(=O)CCCNC(=O)c4cc(NC(=O)c5nc(NC(=O)CCNC(=O)c6cc(NC(=O)c7nccn7C)cn6C)cn5C)cn4CCCCCCN)cn3C)cn2C)cn1C [Compound B-234] | 500 to 1000 nM | 100 to 500 nM |  | 
6 | CCCCCNC(=O)CCNC(=O)c1nc(NC(=O)c2cc(NC(=O)CCNC(=O)c3nc(NC(=O)CCCNC(=O)c4cc(NC(=O)c5nc(NC(=O)CCNC(=O)c6cc(NC(=O)c7nccn7C)cn6C)cn5C)cn4C)cn3C)cn2C)cn1C [Compound B-39] | < 100 nM | < 100 nM |  | 
7 | CC(=O)NCCOCCCn1cc(NC(=O)c2nc(NC(=O)CCNC(=O)c3cc(NC(=O)c4nccn4C)cn3C)cn2C)cc1C(=O)NCCCC(=O)Nc1cn(C)c(C(=O)NCCC(=O)Nc2cc(C(=O)Nc3cn(C)c(C(=O)NCCC(=O)N4CCC(C#CC#CC5CCN(C(C)=O)CC5)CC4)n3)n(C)c2)n1 [Compound B-305] | 100 to 500 nM | < 100 nM |  | 
8 | Cn1cc(NC(=O)c2nc(NC(=O)CCNC(=O)c3cc(NC(=O)c4nccn4C)cn3C)cn2C)cc1C(=O)NCCCC(=O)Nc1cn(C)c(C(=O)NCCC(=O)Nc2cc(C(=O)Nc3cn(C)c(C(=O)NCCCNCC#Cc4ccccc4)n3)n(C)c2)n1 [Compound B-247] | < 100 nM | < 100 nM |  | 
9 | Cn1cc(NC(=O)c2nc(NC(=O)CCNC(=O)c3cc(NC(=O)c4nccn4C)cn3C)cn2C)cc1C(=O)NCCCC(=O)Nc1cn(C)c(C(=O)NCCC(=O)Nc2cc(C(=O)Nc3cn(C)c(C(=O)NCCCNCC#Cc4cccc(C(=O)O)c4)n3)n(C)c2)n1 [Compound B-248] | 100 to 500 nM | < 100 nM |  | 
10 | CCCNC(=O)CCNC(=O)c1nc(NC(=O)c2cc(NC(=O)CCNC(=O)c3nc(NC(=O)CCCNC(=O)c4cc(NC(=O)c5nc(NC(=O)CCNC(=O)c6cc(NC(=O)c7nccn7C)cn6C)cn5C)cn4CCOCCNC(=O)OC(C)(C)C)cn3C)cn2C)cn1C [Compound B-372] | < 100 nM | < 100 nM |  | 
11 | CCCCCC(=O)N1CCC(C#CC#CC2CCN(CCOCCOCCOCCNC(=O)CCNC(=O)c3nc(NC(=O)c4cc(NC(=O)CCNC(=O)c5nc(NC(=O)CCCNC(=O)c6cc(NC(=O)c7nc(NC(=O)CCNC(=O)c8cc(NC(=O)c9nccn9C)cn8C)cn7C)cn6C)cn5C)cn4C)cn3C)CC2)CC1 [Compound B-171] | < 100 nM | 100 to 500 nM |  | 
12 | CCCNC(=O)c1cc(NC(=O)c2nc(NC(=O)CCNC(=O)c3cc(NC(=O)c4nc(NC(=O)CCCNC(=O)c5cc(NC(=O)c6nc(NC(=O)CCNC(=O)c7cc(NC(=O)c8nccn8C)cn7C)cn6C)cn5C)cn4C)cn3C)cn2C)cn1C [Compound B-9] | > 1000 nM | < 100 nM |  | 
13 | CCCNC(=O)c1nc(NC(=O)c2cc(NC(=O)CCNC(=O)c3nc(NC(=O)CCCNC(=O)c4cc(NC(=O)c5nc(NC(=O)CCNC(=O)c6cc(NC(=O)c7nc(N=C(N)N)cn7C)cn6C)cn5C)cn4C)cn3C)cn2C)cn1C [Compound B-328] | 100 to 500 nM | 100 to 500 nM |  | 
14 | CCCN(CCC)C(=O)CCNC(=O)c1nc(NC(=O)c2cc(NC(=O)CCNC(=O)c3nc(NC(=O)CCCNC(=O)c4cc(NC(=O)c5nc(NC(=O)CCNC(=O)c6cc(NC(=O)c7nccn7C)cn6C)cn5C)cn4C)cn3C)cn2C)cn1C [Compound B-50] | 100 to 500 nM | < 100 nM |  | 
15 | CC(=O)NCCOCCCn1cc(NC(=O)c2nc(NC(=O)CCNC(=O)c3cc(NC(=O)c4nccn4C)cn3C)cn2C)cc1C(=O)NCCCC(=O)Nc1cn(C)c(C(=O)NCCC(=O)Nc2cc(C(=O)Nc3cn(C)c(C(=O)NCCC(=O)N4CCC(C#CC#CC5CCNCC5)CC4)n3)n(C)c2)n1 [Compound B-306] | < 100 nM | < 100 nM |  | 
16 | CC(=O)N[C@H](CCNC(=O)c1cc(NC(=O)c2nc(NC(=O)CCNC(=O)c3cc(NC(=O)c4nccn4C)cn3C)cn2C)cn1C)C(=O)Nc1cn(C)c(C(=O)NCCC(=O)Nc2cc(C(=O)Nc3cn(C)c(C(=O)NCCC(=O)N4CCN(C)CC4)n3)n(C)c2)n1 [Compound B-404] | 500 to 1000 nM | 100 to 500 nM |  | 
17 | COCCOCCOCCOCCOCCOCCC(=O)NCCCCCCn1cc(NC(=O)c2nc(NC(=O)CCNC(=O)c3cc(NC(=O)c4nccn4C)cn3C)cn2C)cc1C(=O)NCCCC(=O)Nc1cn(C)c(C(=O)NCCC(=O)Nc2cc(C(=O)Nc3cn(C)c(C(=O)NCCC(=O)N4CCC(C#CC#CC5CCNCC5)CC4)n3)n(C)c2)n1 [Compound B-240] | 100 to 500 nM | < 100 nM |  | 
18 | CC(=O)N1CCC(C#CC#CC2CCN(C(=O)CCNC(=O)c3nc(NC(=O)c4cc(NC(=O)CCNC(=O)c5nc(NC(=O)CCCNC(=O)c6cc(NC(=O)c7nc(NC(=O)CCNC(=O)c8cc(NC(=O)c9nccn9C)cn8C)cn7C)cn6CCN)cn5C)cn4C)cn3C)CC2)CC1 [Compound B-266] | < 100 nM | < 100 nM |  | 
19 | Cn1cc(NC(=O)c2nc(NC(=O)CCNC(=O)c3cc(NC(=O)c4nccn4C)cn3C)cn2C)cc1C(=O)NCCCC(=O)Nc1cn(C)c(C(=O)NCCC(=O)Nc2cc(C(=O)Nc3cn(C)c(C(=O)NCCC(=O)NCCCN4CCCCC4)n3)n(C)c2)n1 [Compound B-38] | 100 to 500 nM | > 1000 nM |  | 
20 | Cn1cc(NC(=O)c2nc(NC(=O)CCNC(=O)c3cc(NC(=O)c4nccn4C)cn3C)cn2C)cc1C(=O)NCCCC(=O)Nc1cn(C)c(C(=O)NCCC(=O)Nc2cc(C(=O)Nc3cn(C)c(C(=O)NCCC(=O)N4CC=C(C#CC5CCNCC5)CC4)n3)n(C)c2)n1 [Compound B-348] | 500 to 1000 nM | 100 to 500 nM |  | 
21 | Cn1cc(NC(=O)c2nccn2C)cc1C(=O)NCCC(=O)Nc1cn(C)c(C(=O)Nc2cc(C(=O)NCCCC(=O)Nc3cn(C)c(C(=O)NCCC(=O)Nc4cc(C(=O)Nc5cn(C)c(C(=O)NCCC(=O)N6CCC(C#CC#CC7CCNCC7)CC6)n5)n(C)c4)n3)n(CCCOCCN)c2)n1 [Compound B-303] | 500 to 1000 nM | 100 to 500 nM |  | 
22 | Cn1cc(NC(=O)c2nc(NC(=O)CCNC(=O)c3cc(NC(=O)c4nccn4C)cn3C)cn2C)cc1C(=O)NCCCC(=O)Nc1cn(C)c(C(=O)NCCC(=O)Nc2cc(C(=O)Nc3cn(C)c(C(=O)NCCC(=O)N4CCC(C#CC5=CCN(C(=O)OCC6c7ccccc7-c7ccccc76)CC5)CC4)n3)n(C)c2)n1 [Compound B-345] | > 1000 nM | 500 to 1000 nM |  | 
23 | Cn1cc(NC(=O)c2nc(NC(=O)CCNC(=O)c3cc(NC(=O)c4nccn4C)cn3C)cn2C)cc1C(=O)NCCCC(=O)Nc1cn(C)c(C(=O)NCCC(=O)Nc2cc(C(=O)Nc3cn(C)c(C(=O)NCCC(=O)NCCOCCOCCOc4ccc(N)cc4)n3)n(C)c2)n1 [Compound B-14] | 100 to 500 nM | 100 to 500 nM |  | 
24 | CCN(CC)CCCC[C@H](NC(C)=O)C(=O)Nc1ccc(OCCOCCOCCOCCOCCOCCOCCNC(=O)CCNC(=O)c2nc(NC(=O)c3cc(NC(=O)CCNC(=O)c4nc(NC(=O)CCCNC(=O)c5cc(NC(=O)c6nc(NC(=O)CCNC(=O)c7cc(NC(=O)c8nccn8C)cn7C)cn6C)cn5C)cn4C)cn3C)cn2C)cc1 [Compound B-144] | 500 to 1000 nM | 500 to 1000 nM |  | 
25 | CN1CCC(N2CCN(C(=O)CCNC(=O)c3nc(NC(=O)c4cc(NC(=O)CCNC(=O)c5nc(NC(=O)CCCNC(=O)c6cc(NC(=O)c7nc(NC(=O)CCNC(=O)c8cc(NC(=O)c9nccn9C)cn8C)cn7C)cn6C)cn5C)cn4C)cn3C)CC2)CC1 [Compound B-120] | 500 to 1000 nM | > 1000 nM |  | 
26 | Cn1cc(NC(=O)c2nc(NC(=O)CCNC(=O)c3cc(NC(=O)c4nccn4C)cn3C)cn2C)cc1C(=O)NCCCC(=O)Nc1cn(C)c(C(=O)NCCC(=O)Nc2cc(C(=O)Nc3cn(C)c(C(=O)NCCCO)n3)n(C)c2)n1 [Compound B-105] | 100 to 500 nM | 100 to 500 nM |  | 
27 | CCOC(=O)CCNC(=O)c1nc(NC(=O)c2cc(NC(=O)CCNC(=O)c3nc(NC(=O)[C@@H](CCNC(=O)c4cc(NC(=O)c5nc(NC(=O)CCNC(=O)c6cc(NC(=O)c7nccn7C)cn6C)cn5C)cn4C)NC(C)=O)cn3C)cn2C)cn1C [Compound B-4] | 100 to 500 nM | 100 to 500 nM |  | 
28 | Cn1cc(NC(=O)c2nccn2C)cc1C(=O)NCCC(=O)Nc1cn(C)c(C(=O)Nc2cc(C(=O)NCC[C@@H](N)C(=O)Nc3cn(C)c(C(=O)NCCC(=O)Nc4cc(C(=O)Nc5cn(C)c(C(=O)CCCC(=O)N6CCCCC6)n5)n(C)c4)n3)n(C)c2)n1 [Compound B-406] | 100 to 500 nM | > 1000 nM |  | 
